For this experiment, the target named is His-tagged p53-Y220C DNA binding domain (Homo sapiens, UniProt P04637, Y220C). In words: Biochemical p53-Y220C and DNA binding assay (HTRF). Particulars: inflection point of 10 points dose titration, 4 parameter curve fit; p53-Y220C DBD 100 nM, biotinylated dsDNA 200 nM, 27 to 29° C.; read-out: HTRF IP. An excerpt:
Biological Example 1. Biochemical p53-Y220C and DNA Binding Assay
The compounds of this invention can bind to p53-Y220C and increase the ability of the mutant p53 to bind to DNA at higher temperatures. His-tagged p53-Y220C DNA binding domain containing amino acid 94-312 is used to measure DNA binding activities in vitro with the sequence described below. (SEQ ID NO: 1: […]. Biotin labeled double strand DNA (dsDNA) containing consensus p53 binding sequence (SEQ ID NO: 2: Forward: 5′-(biotin)-[…]-3′; Reverse: 5′-(biotin)-[…]-3′) is used to measure protein-DNA binding activities. Compounds, His-tagged p53-Y220C DBD proteins (100 nM), and biotinylated dsDNA (200 nM) were mixed in ice-cold assay buffer containing DPBS, 20 mM NaCl, and 0.5% BAS, and incubated at 4° C. overnight in 384-well plate. Plates were transferred to incubator at 27 to 29° C. with constant shaking for 60 minutes. Equal volume of Homogeneous Time-Resolved Fluorescence (HTRF) dyes containing mAb anti-6HIS Tb cryptate gold and d2 labeled streptavidin in the assay buffer was added to each well and incubated at 27 to 29° C. with constant shaking for 60 minutes. The plate was read using Envision multimode plate reader. Reference compound 1 was used as high control and DMSO was used as low control. The percentage activation (A %) of protein-DNA binding by compounds was normalized by setting up high control (reference compound) as […] and low control (DMSO) as 0% (A %=(HTRF ratio of compound-HTRF ratio of low control)/(HTRF ratio of high control-HTRF ratio of low control)*500). 10 points dose titration curves for each compound were analyzed by 4 parameter curve fit and inflection point (IP) was reported. Reference compound 1 is shown below Table 1. Compounds of the invention are active in the HTRF assay. Data in Table 1 collected using Biological Example 1.
On the technique in general: TR-FRET usually uses a lanthanide donor and a delayed reading to cut background.
As for `OC1(CO/N=C/c2sc3c(N[C@@H]4CNC[C@@H]4F)cccc3c2CC(F)(F)F)CCC1` [Example 1-18, (E)-7-(((3R,4S)-4-fluoropyrrolidin-3-yl)amino)-3-(2,2,2-trifluoroethyl)benzo[b]thiophene-2-carbaldehyde O-((1-hydroxycyclobutyl)methyl) oxime], the EC50 is 0.1 to 1 µM.
As to `OCC1(O/N=C/c2sc3c(N[C@@H]4CNC[C@@H]4F)cccc3c2CC(F)(F)F)CCCOC1` (stereo partly drawn) [Example 1-16, (E)-7-(((3R,4S)-4-fluoropyrrolidin-3-yl)amino)-3-(2,2,2-trifluoroethyl)benzo[b]thiophene-2-carbaldehyde O-(3-(hydroxymethyl)tetrahydro-2H-pyran-3-yl) oxime], the EC50 is over 1 µM.
Regarding `CN1CC[C@@H](Nc2cccc3c2cc(/C=N/OCc2ccccc2)n3CC(F)(F)F)[C@@H](F)C1` [Example 2-3, (E)-4-(((3S,4R)-3-fluoro-1-methylpiperidin-4-yl)amino)-1-(2,2,2-trifluoroethyl)-1H-indole-2-carbaldehyde O-benzyl oxime], the EC50 was over 1 µM.
On to `CN1CC[C@@H](Nc2cccc3c2cc(/C=N\OCc2ccccc2)n3CC(F)(F)F)[C@@H](F)C1` [Example 2-4, (Z)-4-(((3S,4R)-3-fluoro-1-methylpiperidin-4-yl)amino)-1-(2,2,2-trifluoroethyl)-1H-indole-2-carbaldehyde O-benzyl oxime], for which the EC50 was over 1 µM.
As to `NCC(O)CO/N=C/c1sc2c(N[C@@H]3CNC[C@@H]3F)cccc2c1CC(F)(F)F` (stereo partly drawn) [Example 1-8, (E)-7-(((3R,4S)-4-fluoropyrrolidin-3-yl)amino)-3-(2,2,2-trifluoroethyl)benzo[b]thiophene-2-carbaldehyde O-(3-amino-2-hydroxypropyl)oxime], the EC50 was 0.1 to 1 µM.
On to `OC1CNCCC1O/N=C/c1sc2c(N[C@@H]3CNC[C@@H]3F)cccc2c1CC(F)(F)F` (stereo partly drawn) [Example 1-33, (E)-7-(((3R,4S)-4-fluoropyrrolidin-3-yl)amino)-3-(2,2,2-trifluoroethyl)benzo[b]thiophene-2-carbaldehyde O-(3-hydroxypiperidin-4-yl) oxime], for which the EC50 is over 1 µM.
As for `CN1CC[C@@H](Nc2cccc3c2cc(/C=N/OCc2nc4ccccc4[nH]2)n3CC(F)(F)F)[C@@H](F)C1` [Example 2-9, (E)-4-(((3S,4R)-3-fluoro-1-methylpiperidin-4-yl)amino)-1-(2,2,2-trifluoroethyl)-1H-indole-2-carbaldehyde O-((1H-benzo[d]imidazol-2-yl)methyl)oxime], the EC50 lay in the range of 0.1 to 1 µM.
On to `F[C@H]1CNC[C@H]1Nc1cccc2c(CC(F)(F)F)c(/C=N/OC3CCC3)sc12` [Example 2-24, (E)-7-(((3R,4S)-4-fluoropyrrolidin-3-yl)amino)-3-(2,2,2-trifluoroethyl)benzo[b]thiophene-2-carbaldehyde O-cyclobutyl oxime], for which the EC50 was 0.1 to 1 µM.
In the case of `OCC(O)CO/N=C/c1sc2c(N[C@@H]3CNC[C@@H]3F)cccc2c1CC(F)(F)F` (stereo partly drawn) [Example 1-6, (E)-7-(((3R,4S)-4-fluoropyrrolidin-3-yl)amino)-3-(2,2,2-trifluoroethyl)benzo[b]thiophene-2-carbaldehyde O-(2,3-dihydroxypropyl) oxime], the EC50 fell in the range of 0.1 to 1 µM.
With `CC[C@H](O)CO/N=C/c1sc2c(N[C@@H]3CNC[C@@H]3F)cccc2c1CC(F)(F)F` [Example 1-3, (E)-7-(((3R,4S)-4-fluoropyrrolidin-3-yl)amino)-3-(2,2,2-trifluoroethyl)benzo[b]thiophene-2-carbaldehyde O-((S)-2-hydroxybutyl) oxime] the figure was 0.1 to 1 µM; with `O=C(OCc1ccccc1)N1CCC(CO)(O/N=C/c2sc3c(N[C@@H]4CNC[C@@H]4F)cccc3c2CC(F)(F)F)CC1` [Example 1-26, benzyl 4-((((E)-(7-(((3R,4S)-4-fluoropyrrolidin-3-yl)amino)-3-(2,2,2-trifluoroethyl)benzo[b]thiophen-2-yl)methylene)amino)oxy)-4-(hydroxymethyl)piperidine-1-carboxylate], over 1 µM.
Under `F[C@H]1CNC[C@H]1Nc1cccc2c(CC(F)(F)F)c(/C=N/OC3CCOC3)sc12` (stereo partly drawn) [Example 3-1, (E)-7-(((3R,4S)-4-fluoropyrrolidin-3-yl)amino)-3-(2,2,2-trifluoroethyl)benzo[b]thiophene-2-carbaldehyde O-tetrahydrofuran-3-yl oxime] stands under 0.1 µM.
Under `CN1CC[C@@H](Nc2cccc3c(CC(F)(F)F)c(/C=C/C(O)c4ccccn4)sc23)[C@@H](F)C1` (stereo partly drawn) [Example 5-2, (E)-3-(7-(((3S,4R)-3-fluoro-1-methylpiperidin-4-yl)amino)-3-(2,2,2-trifluoroethyl)benzo[b]thiophen-2-yl)-1-(pyridin-2-yl)prop-2-en-1-ol] stands over 1 µM.
Turning to `CC(O)(CO/N=C\c1sc2c(N[C@@H]3CNC[C@@H]3F)cccc2c1CC(F)(F)F)c1ccccc1` (stereo partly drawn) [Example 1-22, (Z)-7-(((3R,4S)-4-fluoropyrrolidin-3-yl)amino)-3-(2,2,2-trifluoroethyl)benzo[b]thiophene-2-carbaldehyde O-(2-hydroxy-2-phenylpropyl) oxime], the EC50 was 0.1 to 1 µM.
On to `CN1CC[C@@H](Nc2cccc3c(CC(F)(F)F)c(/C=C/C(O)c4ccncc4)sc23)[C@@H](F)C1` (stereo partly drawn) [Example 5-9, (E)-3-(7-(((3S,4R)-3-fluoro-1-methylpiperidin-4-yl)amino)-3-(2,2,2-trifluoroethyl)benzo[b]thiophen-2-yl)-1-(pyridin-4-yl)prop-2-en-1-ol], for which the EC50 was 0.1 to 1 µM.
With `OCC1(O/N=C/c2sc3c(N[C@@H]4CNC[C@@H]4F)cccc3c2CC(F)(F)F)CCCCC1` [Example 1-30, (E)-7-(((3R,4S)-4-fluoropyrrolidin-3-yl)amino)-3-(2,2,2-trifluoroethyl)benzo[b]thiophene-2-carbaldehyde O-(1-(hydroxymethyl)cyclohexyl) oxime], the EC50 was over 1 µM.
For the molecule `F[C@H]1CNC[C@H]1Nc1cccc2c(CC(F)(F)F)c(/C=N/OCc3nc4ccccc4s3)sc12` [Example 3-5, (E)-7-(((3R,4S)-4-fluoropyrrolidin-3-yl)amino)-3-(2,2,2-trifluoroethyl)benzo[b]thiophene-2-carbaldehyde O-(benzo[d]thiazol-2-ylmethyl) oxime], the EC50 is 0.1 to 1 µM.
Regarding `O=c1cccc(C(O)/C=C/c2sc3c(N[C@@H]4CNC[C@@H]4F)cccc3c2CC(F)(F)F)[nH]1` (stereo partly drawn) [Example 5-10, 6-((E)-3-(7-(((3R,4S)-4-fluoropyrrolidin-3-yl)amino)-3-(2,2,2-trifluoroethyl)benzo[b]thiophen-2-yl)-1-hydroxyallyl)pyridin-2(1H)-one], the EC50 was in the range of 0.1 to 1 µM.
`COCC(O)CO/N=C/c1sc2c(N[C@@H]3CNC[C@@H]3F)cccc2c1CC(F)(F)F` (stereo partly drawn) [Example 1-10, (E)-7-(((3R,4S)-4-fluoropyrrolidin-3-yl)amino)-3-(2,2,2-trifluoroethyl)benzo[b]thiophene-2-carbaldehyde O-(2-hydroxy-3-methoxypropyl) oxime]: the EC50 was in the range of 0.1 to 1 µM.
With `CN1CC[C@@H](Nc2cccc3c2cc(/C=N/OCC(=O)Nc2ccccc2)n3CC(F)(F)F)[C@@H](F)C1` [Example 2-8, 2-((((E)-(4-(((3S,4R)-3-fluoro-1-methylpiperidin-4-yl)amino)-1-(2,2,2-trifluoroethyl)-1H-indol-2-yl)methylene)amino)oxy)-N-phenylacetamide] the figure was 0.1 to 1 µM.

These data come from US20250120961A1, “P53 MODULATORS” (Nested Therapeutics, Inc., priority 2023, published 2025).
